The results in this text go back to US5041436A, “1-arylsulphonyl-2-piperidinone derivatives, process and intermediates for the preparation thereof, their application as antispasmodics and compositions containing them” (Roussel Uclaf, priority 1989, dated 1991).

Test [1] relates to isolated guinea pig ileum. Briefly: Agonist action on isolated guinea pig ileum. The settings on record: negative logarithm of the dose which produces 50% of maximum effect. Here is the method: (§1) The interaction of the compounds with different receptors was assessed on isolated guinea pig ileum according to the following method.
(§2) Guinea pig ileum segments measuring 2.5-3 cm were washed and immediately suspended in a bath containing 10 ml of Tyrode's solution at 37° C. aerated with a mixture of oxygen (95%) and carbon dioxide (5%). After a stabilization period of at least 30 minutes, the contractions were recorded, maintaining the preparation under constant tension of 1 g using a gauge connected to a polygraph. The agonist action was assessed by leaving the compound in contact with the isolated tissue for a period necessary for expressing the maximal contraction; the preparation was then washed with Tyrode's solution. The next dose was added to the bath only after the preparation had returned to its base line. As a reference product, arecoline was employed. The antagonist action was assessed on contractions induced by acetyl choline (1×10^-6 M), histamine (1×10^-5 M) and barium chloride (2×10^-4 M). Atropine, diphenhydramine and papaverine were emplohyed as reference products. The contact time before adding the agonist was one minute.
(§3) For each compound, the dose-response curves are obtained with 4 to 6 different concentrations and 3 to 5 independent tests. The agonist activity is expressed by pD2 (negative logarithm of the dose which produces 50% of maximum effect). The antagonist activity is expressed by IC50 (concentration inhibiting 50% of the maximal response).

In test [2] the test system is cholinomimetic effects induced by carbachol. As to the kind of experiment: In vivo anticholinergic action: inhibition of cholinomimetic effects induced by carbachol in mice. Further details: species or system CD1 male mice. The conditions noted are these: Mus musculus, ip. Here is the method: The anticholinergic activity of the compounds was determined by assessing the capacity to inhibit the cholinomimetic effects induced by carbachol. Atropine sulphate was employed as a reference product.
CD1 male mice weighing 25 to 30 g were used. They were distributed in groups of 6 animals and treated intraperitoneally with scalar doses of the products or 0.25% Methocel for the controls. 12 animals were used for each dose. 30 minutes after administration of the compounds, the mice were injected subcutaneously with 1 mg/kg of carbachol dissolved in physiological saline.
Each animal was examined 30 minutes after the injection of carbachol to assess the presence of diarrhoea, salivation and eye watering; in addition, the body temperature was measured by means of a thermocouple inserted 1.5 cm into the rectum.
For each compound, we have determined and recorded in the following table the dose capable of inhibiting the appearance of the carbachol-induced cholinometric symptoms in 50% of the animals, and of increasing by 1° C. the hypothermic effect induced by the cholinergic agent.

Test [3] concerns isolated guinea pig ileum, contractions induced by acetyl choline. Briefly: Antagonist action on contractions induced by acetyl choline, isolated guinea pig ileum. The settings on record: acetyl choline 1×10^-6 M; contact time one minute; 37° C.; read-out: Antagonist to different agents (IC50), ACh. Here is the method: as §1, §2, §3
Test [4] has as its system isolated guinea pig ileum, contractions induced by barium chloride. As to the kind of experiment: Antagonist action on contractions induced by barium chloride, isolated guinea pig ileum. The settings on record: barium chloride 2×10^-4 M; contact time one minute; 37° C.; read-out: Antagonist to different agents (IC50), BaCl2. Here is the method: as §1, §2, §3

Read-outs that look alike come from different tables or passages of the source.

For `COC(=O)C1=CCCN(C)C1` [Arecoline, arecoline, reference compound], the “Agonist action pD2” value in test [1] is 6.68.
On to `CN1[C@@H]2CC[C@H]1C[C@@H](OC(=O)C(CO)c1ccccc1)C2` (stereo partly drawn) [Atropine, reference compound], for which the ED50 came out at 0.04 mg/kg in test [2] (read-out: Dose inhibiting carbachol-induced diarrhoea in 50% of the animals), 0.05 mg/kg in test [2] (read-out: Dose inhibiting carbachol-induced eye watering in 50% of the animals) and 0.06 mg/kg in test [2] (read-out: Dose inhibiting carbachol-induced salivation in 50% of the animals). The IC50 in test [3] turned out to be 0.0095 µM.
`COc1ccc(Cc2nccc3cc(OC)c(OC)cc23)cc1OC` [Papaverine, papaverine, reference compound]: in test [4], the IC50 is 45 µM.

Usually IC50 stands for the midpoint of a concentration-inhibition curve.
